Results reported in US8747815B2, “Use of a cosmetic of pharmaceutical composition, comprising a lupeol-rich extract as an active ingredient for stimulating the synthesis of heat shock proteins” (Laboratoires Expanscience, priority 2003, dated 2014).

What was measured:
[1] = system: fibroblasts from an older white stretch mark (FVb); assay: Retraction of collagen lattice (free lattice), white stretch mark fibroblasts; type: cell-based
Description: (§1) Normal fibroblasts (FS), fibroblasts from a red or recent stretch mark (FVr) and fibroblasts from an older white stretch mark (FVb) were used in this study.
(§2) The fibroblasts were cultured in the absence or in the presence of lupeol at a concentration of 7 μg/ml.
(§3) The mechanism of retraction consists of the gathering up and rearranging of collagen by fibroblasts. The collagen polymerizes into fibrils to which the cells attach. The latter pull on the fibrils by virtue of their migratory movement, and thus reorganize the matrix. The diameter of the lattice is then decreased.
(§4) The mixture for producing lattices was poured into Petri dishes 50 mm in diameter. A gel formed in a few minutes at 37° C. The lattices were cultured with or without lupeol. The degree of retraction was determined by measuring the diameters of the lattices.

human skin fibroblasts = assay: Cytotoxicity of test concentrations on fibroblasts in culture; type: cell-based
[2] = system: fibroblasts from an older white stretch mark (FVb); assay: Isometric forces developed by fibroblasts in lattice, white stretch mark fibroblasts; type: cell-based; conditions: FVb + lupeol 7 μg/ml, at 7 hours of culture; FVb alone 3999 V±881
Text: (§5) Normal fibroblasts (FS), fibroblasts from a red or recent stretch mark (FVr) and fibroblasts from an older white stretch mark (FVb) were used in this study. Mechanical inhibition of the retraction of the collagen gel in which fibroblasts are embedded is reflected by the generation of a force, called “retraction force” or “isometric force”. The lattices develop in a culture dish that consists of 8 rectangular cells. Placed into each one are 2 flexible silicon slides, the lower parts of which consist of grids to which the lattice attaches when it polymerizes. The lattice develops between 2 slides so as to give a rectangular shape that is slightly shrunken at the center. This shape in conventional mechanics is referred to as a “diabolo” shape. These slides have, in their upper part, a strain gauge system made of gold deposited at their surface. Under the influence of the retraction force developed by the fibroblasts, the silicon slides distort. This is reflected by a variation in the value of electrical resistance of the stress gauge, measured by means of a Wheatstone bridge. This variation indicates the force developed within the lattice, measured in real time via a PC acquisition card and suitable software. The mixture for producing the lattices was poured into the rectangular cells of the culture dish. A gel formed in a few minutes at 37° C. […] The isometric forces were measured for 48 hours.

Normal fibroblasts (FS) [3] = assay: Retraction of collagen lattice (free lattice), normal fibroblasts; type: cell-based
Description: as §1, §2, §3, §4

gene encoding HSP47 = assay: cDNA microarray, expression of the gene encoding HSP47 in human skin fibroblasts; type: cell-based; conditions: 4.5 μg/ml lupeol
Description: We used the “cDNA microarray” method for studying the effects of the product on the expression of the genes encoding structural and regulatory proteins of potential interest in skin physiology. Such an approach makes it possible to screen, in a single step, the effects of a product or of a treatment on gene expression in a given biological system and to obtain a signature of the effects of this treatment.
The product was applied to human skin fibroblasts cultured in MEM/M199 for 18 hours. The lupeol, in solution in ethanol was tested at the concentration of […], this concentration corresponds to a noncytotoxic dose.
The methodology used is that recommended by Clontech (Palo Alto, USA), and comprises: • a step consisting in extracting and purifying the total RNA; • a step consisting in purifying the messenger RNAs according to the AtlasPure protocol (Clontech); • labeling of the DNA probes with P^32 by reverse transcription; • purifying the label probes by exclusion column chromatography and verification of the quality and of the equivalence by liquid scintillation counting; and • hybridizing membranes (provided by the company Custom Atlas BIOAlternative) with the radiolabeled probes (68° C., overnight). Analysis of Results
The membranes were analyzed by direct quantification of the radioactivity of the spots using a Cyclone PhosphorImager (provided by the company Packard Instrument).
The results are expressed in relative units (RU, mean radioactivity of the points of the double spot corresponding to each gene, corrected for the background noise and for the differences in probe labeling intensity).
The results were analyzed case by case, label by label. Arbitrarily, the limit of significance was fixed at approximately +30% of the control for a stimulating effect, i.e. for an effect greater than 130%.

Normal fibroblasts (FS) [4] = assay: Isometric forces developed by fibroblasts in lattice, normal fibroblasts; type: cell-based; conditions: FS + lupeol 7 μg/ml, at 7 hours of culture; FS alone 3583 V±1076
Text: as §5

[5] = system: fibroblasts from a red or recent stretch mark (FVr); assay: Retraction of collagen lattice (free lattice), red stretch mark fibroblasts; type: cell-based
Description: as §1, §2, §3, §4

HSP47 heat shock protein = assay: Western blotting, expression of the HSP47 protein in fibroblasts in culture; type: cell-based, human; conditions: dose of 20 μg/ml, incubation time of 48 h
Description: This technique consists of: • separation of the various proteins on a polyacrylamide gel under denaturing conditions; • transfer of the proteins onto a specific membrane (PVDF membrane, sold by the company Biorad); • labeling of the protein of interest with a specific antibody (HSP47, Stressgen); • “colorimetric” visualization (Sigma Fast, BCPIP/NBT). Various nontoxic concentrations (5, 10 and 20 μg/ml) and several incubation times (24 and 48 hours) were tested.

[6] = system: FS, FVr and FVb fibroblasts; assay: Demonstration of F actin (phalloidin-FITC) in fibroblasts cultured in lattice; type: cell-based; conditions: lupeol 7 μg/ml, lattices cultured for 5 days
Description: Normal fibroblasts (FS), fibroblasts from a red or recent stretch mark (FVr) and fibroblasts from an older white stretch mark (FVb) were used in this study. The fibroblasts were cultured in the absence or in the presence of lupeol at a concentration of 7 μg/ml. Fibroblasts are large (100 μm) cells with a fusiform or star-shaped morphology. Their cytoplasm contains an assembly of protein filaments (intermediate filaments, microtubules, actin filaments) which constitute the framework, or cytoskeleton, thereof in close relationship with the plasma membrane. 10% of all cell proteins consist of actin, polymerized in the form of filaments and bundles, which are often described as stress fibers. Actin filaments contribute to the contractile activity of the fibroblast by generating isometric forces. Several types of actin exist, including polymerized fibrillar actin (F actin) and a smooth muscle actin (αSM actin). Lattices pulled over a nylon ring were cultured for 5 days in Petri dishes (Ø 50 mm). They were fixed with 3% paraformaldehyde in PBS for 20 min, and then rinsed with PBS. They were subsequently incubated with PBS+0.1% Triton X100 in order to permeabilize the membrane. […] They were mounted between slide and cover slip with a drop of Vectashield, and were then observed under a fluorescence microscope, under UV.

[7] = system: FS, FVr and FVb fibroblasts; assay: Demonstration of αSM actin (immunolabeling) in fibroblasts cultured in lattice; type: cell-based; conditions: lupeol 7 μg/ml, lattices cultured for 5 days
Description: Normal fibroblasts (FS), fibroblasts from a red or recent stretch mark (FVr) and fibroblasts from an older white stretch mark (FVb) were used in this study. The fibroblasts were cultured in the absence or in the presence of lupeol at a concentration of 7 μg/ml. Fibroblasts are large (100 μm) cells with a fusiform or star-shaped morphology. Their cytoplasm contains an assembly of protein filaments (intermediate filaments, microtubules, actin filaments) which constitute the framework, or cytoskeleton, thereof in close relationship with the plasma membrane. 10% of all cell proteins consist of actin, polymerized in the form of filaments and bundles, which are often described as stress fibers. Actin filaments contribute to the contractile activity of the fibroblast by generating isometric forces. Several types of actin exist, including polymerized fibrillar actin (F actin) and a smooth muscle actin (αSM actin). Lattices pulled over a nylon ring were cultured for 5 days in Petri dishes (Ø 50 mm). They were fixed with 3% paraformaldehyde in PBS for 20 min, and then rinsed with PBS. They were subsequently incubated with PBS+0.1% Triton X100 so as to permeabilize the membrane with respect to antibodies, and then with 3% H2O2 in order to eliminate endogenous peroxidases. […] was blocked with 3% BSA+10% sheep serum in PBS. […]

[8] = system: fibroblasts from a red or recent stretch mark (FVr); assay: Isometric forces developed by fibroblasts in lattice, red stretch mark fibroblasts; type: cell-based; conditions: FVr + lupeol 7 μg/ml, at 7 hours of culture; FVr alone 5547 V±808
Text: as §5

SMILES: C=C(C)[C@@H]1CC[C@]2(C)CC[C@]3(C)[C@H](CC[C@@H]4[C@@]5(C)CC[C@H](O)C(C)(C)[C@@H]5CC[C@]43C)[C@@H]12 [lupeol, Lupeol]
- Gel diameter ([1]; FVb + lupeol 7 μg/ml, FVb alone 2.9): 3.2
- % decrease in retraction ([1]; FVb, lupeol 7 μg/ml, at D2): 10%
- cytotoxicity of the tested concentration (human skin fibroblasts; 4.5 μg, in solution in ethanol, human skin fibroblasts): noncytotoxic
- toxicity of the tested concentrations (human skin fibroblasts; 5, 10 and 20 μg/ml, fibroblasts in culture): nontoxic
- isometric forces [2]: 1365 V
- Gel diameter (Normal fibroblasts (FS) [3]; FS + lupeol 7 μg/ml, FS alone 2.5): 3
- % decrease in retraction (Normal fibroblasts (FS) [3]; FS, lupeol 7 μg/ml, at D2): 20%
- HSP47 gene expression, % of the control (gene encoding HSP47; 18 hours, human skin fibroblasts): 129 % of the control
- HSP47 gene expression, relative units (RU) (gene encoding HSP47; 18 hours, human skin fibroblasts, control cells 28.2 RU): 36.4 RU
- regulation of the expression of the gene encoding HSP47 (gene encoding HSP47; incubation for 18 hours): positive regulation
- isometric forces (Normal fibroblasts (FS) [4]): 1325 V
- Gel diameter ([5]; FVr + lupeol 7 μg/ml, FVr alone 3): 3.6
- % decrease in retraction ([5]; FVr, lupeol 7 μg/ml, at D2): 20%
- HSP47 production (Western blotting) (HSP47 heat shock protein): stimulation of HSP47 production
- F actin stress fibers and fibroblast morphology [6]: lose their F actin stress fibers and evolve toward a star-shaped form
- labeling for αSM actin [7]: weak labeling for αSM actin
- isometric forces [8]: 2488 V
